Test [1] relates to HEK293. Briefly: IC50 for inhibition of ZIKV NS1 production. The protocol: (§1)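 HEK293 cells in 1536-well plates were pre-treated with compound for 1 h, infected with ZIKV (MOI 1) for 24 h, and NS1 antigen (intra- plus extracellular) was measured by TR-FRET. Confirmation used 11-point 1:3 dilutions, and IC50 and maximal inhibition were fitted in GraphPad Prism.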
Test [2] deals with HEK293. Briefly: maximal inhibition of ZIKV NS1 production (% inhibition); higher = stronger antiviral effect. The protocol: as §1
Test [3] has as its system HEK293. Briefly: cytotoxicity IC50 (ATP content, uninfected cells); higher = less cytotoxic. The conditions noted are these: infection: none.

Consider 44 molecules from the supplement of paper PMC8498969.

For orientation: IC50 means the midpoint of a concentration-inhibition curve.

Molecule `COc1c(C)c2c(c(O)c1C/C=C(\C)CCC(=O)OCCN1CCOCC1)C(=O)OC2` returned an IC50 in the test on HEK293 [1] of 0.53 µM. Also, the maximal inhibition in the test on HEK293 [2] was 105. Moreover, the “cytotoxicity IC50” value with HEK293 [3] is > 100 µM.
For `CCCCC1C(=O)N(c2ccccc2)N(c2ccc(O)cc2)C1=O` (configuration not stated) the same measures were 17 µM, 107 and > 100 µM.
For `CC(C)C[C@H](NC(=O)[C@H](CCc1ccccc1)NC(=O)CN1CCOCC1)C(=O)N[C@@H](Cc1ccccc1)C(=O)N[C@@H](CC(C)C)C(=O)[C@@]1(C)CO1` the same measures were 0.16 µM, 90 and 0.32 µM.
The matching figures for `O=C1[C@H](Cc2ccc(O)cc2)N2C(=O)CCN(C(=O)NCc3ccccc3)[C@H]2CN1Cc1cccc2ccccc12`: 13 µM, 103 and > 100 µM.
`COc1cccc(-c2ccc(NC(=O)C3=C(C(=O)O)CCC3)c(F)c2)c1` displayed an IC50 in the test on HEK293 [1] of 4 µM. The same molecule had a maximal inhibition in the test on HEK293 [2] of 107. Also, the “cytotoxicity IC50” value in the test with HEK293 [3] stood at 1.9 µM.
The matching figures for `N=C(N)NN=C(/C=C/c1ccc([N+](=O)[O-])o1)/C=C/c1ccc([N+](=O)[O-])o1`: 3.9 µM, 102 and 3.9 µM.
The matching figures for `CCCCCC(=O)O[C@]1(C(C)=O)CC[C@H]2[C@@H]3CCC4=CC(=O)CC[C@]4(C)[C@H]3CC[C@@]21C`: 50 µM, 99 and 7.9 µM.
For `CCCCCC[C@H]1C(=O)O[C@H](C)[C@H](NC(=O)c2cccc(NC=O)c2O)C(=O)O[C@@H](C)[C@@H]1OC(=O)CC(C)C`, the IC50 with HEK293 [1] came out at 0.012 µM. This molecule returned a maximal inhibition with HEK293 [2] of 94. Further, the “cytotoxicity IC50” value in the test on HEK293 [3] was 0.0055 µM.
In the test on HEK293 [1], `CO/C1=C\C(C)=C\[C@@H](C)[C@@H](O)[C@@H](C)C/C(C)=C/C=C/[C@H](OC)[C@@H]([C@@H](C)[C@@H](O)[C@H](C)[C@@]2(O)C[C@@H](O)[C@H](C)[C@@H](C(C)C)O2)OC1=O` yielded an IC50 of 5.3 µM. Further, the maximal inhibition in the test with HEK293 [2] worked out at 101. Besides, the “cytotoxicity IC50” value in the test on HEK293 [3] was 80 µM.
For `COc1ccc(-c2cc3c(C)nc(N)nc3n([C@H]3CC[C@H](OCCO)CC3)c2=O)cn1` the same measures were 1.5 µM, 78 and 0.47 µM.
The matching figures for `CCN(CC)CCNC(=O)c1ccc2nc(-c3ccccc3)c(-c3ccc(CN4CCC(n5c(=O)[nH]c6ccccc65)CC4)cc3)nc2c1`: 60 µM, 55 and > 100 µM.
With `c1cnc2c(c1)ccc1cccnc12`, in the test with HEK293 [1], the IC50 came to 14 µM. The same molecule had a maximal inhibition in the test on HEK293 [2] of 99. For the same molecule, the “cytotoxicity IC50” value in the test with HEK293 [3] was 3.6 µM.
The matching figures for `COC(=O)Nc1nc2cc(C(=O)c3cccs3)ccc2[nH]1`: 1.1 µM, 68 and > 100 µM.
The matching figures for `[O-][n+]1ccccc1SSc1cccc[n+]1[O-]`: 1.4 µM, 98 and 0.16 µM.
In the case of `NC(=O)Nc1cc(-c2cccc(F)c2)sc1C(=O)N[C@H]1CCCNC1`, the IC50 in the test on HEK293 [1] is 0.37 µM. In the test on HEK293 [2], the maximal inhibition is 99. Further, the “cytotoxicity IC50” value with HEK293 [3] is > 100 µM.
For `CC[C@H](CC#N)OC(=O)N[C@@H](C)c1cccc(NC(=O)Nc2ccc(-c3cnco3)c(OC)c2)c1` the same measures were 0.14 µM, 99 and 20 µM.
The matching figures for `Cc1cc(Nc2cc(N3CCN(C)CC3)nc(Sc3ccc(NC(=O)C4CC4)cc3)n2)n[nH]1`: 14 µM, 107 and > 100 µM.
For `O=C(Nc1cc(C(F)(F)F)cc(C(F)(F)F)c1)c1cc(Cl)ccc1O` the same measures were 3.9 µM, 99 and 0.71 µM.
In turn, `CCn1nnc2c(N3CCOCC3)nc(-c3ccc(NC(=O)Nc4ccc(C(=O)N5CCN(C)CC5)cc4)cc3)nc21` registered an IC50 with HEK293 [1] of 1.6 µM. The maximal inhibition in the test with HEK293 [2] was 79. The “cytotoxicity IC50” value in the test with HEK293 [3] stood at 0.65 µM.
In the test with HEK293 [1], `COc1cc(NCc2ccc3nc(N)nc(N)c3c2C)cc(OC)c1OC` displayed an IC50 of 1.6 µM. This molecule yielded a maximal inhibition in the test with HEK293 [2] of 99. Besides, the “cytotoxicity IC50” value in the test with HEK293 [3] is 2.2 µM.
For `Cc1ccc([N+](=O)[O-])[c]2c1[O][Hg]2` the same measures were 14 µM, 107 and 9 µM.
The matching figures for `C=CCn1c(=O)c2cnc(Nc3ccc(N4CCN(C)CC4)cc3)nc2n1-c1cccc(C(C)(C)O)n1`: 1.7 µM, 99 and > 100 µM.
For `Cc1ccc(NC(=O)c2ccc(CN3CCN(C)CC3)cc2)cc1Nc1nccc(-c2cccnc2)n1` the same measures were 60 µM, 64 and 41 µM.
`CSc1cccc(Nc2ncc3cc(-c4c(Cl)cccc4Cl)c(=O)n(C)c3n2)c1` yielded an IC50 in the test with HEK293 [1] of 8.4 µM. Further, the maximal inhibition in the test with HEK293 [2] is 98. Moreover, the “cytotoxicity IC50” value in the test with HEK293 [3] amounted to 6.6 µM.
For `O=[N+]([O-])c1ccc(O)c2ncccc12` the same measures were 6 µM, 94 and 4.7 µM.
The matching figures for `OC[C@H](Cc1ccccc1)Nc1nc(Oc2ccc3c(c2)CCC3)nc2c1ncn2Cc1ccc(-c2ccccc2)cc1`: 7.8 µM, 100 and 90 µM.
For `CC[n+]1c(/C=C/C=C2/N(C)c3ccccc3C2(C)C)sc2ccccc21` the same measures were 4 µM, 97 and 0.26 µM.
Regarding `Cc1ccccc1C(=O)c1ccc(Nc2ccc(Br)cc2N)cc1Cl`, the concentration for half-maximal inhibition (IC50) with HEK293 [1] was found to be 40 µM. This molecule showed a maximal inhibition in the test with HEK293 [2] of 68. Also, the “cytotoxicity IC50” value in the test with HEK293 [3] was > 100 µM.
For `CC[C@@]1(O)C(=O)OCc2c1cc1n(c2=O)Cc2cc3c(CN(C)C)c(O)ccc3nc2-1` the same measures were 0.051 µM, 96 and > 100 µM.
The matching figures for `Cc1[nH]nc2ccc(-c3cncc(OC[C@@H](N)Cc4ccccc4)c3)cc12`: 5.1 µM, 97 and 0.36 µM.
`CS(=O)(=O)N1CCN(Cc2cc3nc(-c4cccc5[nH]ncc45)nc(N4CCOCC4)c3s2)CC1`: the IC50 in the test with HEK293 [1] worked out at 5.6 µM. In the test with HEK293 [2], this molecule displayed a maximal inhibition of 65. In addition, in the test with HEK293 [3], the “cytotoxicity IC50” value stood at 70 µM.
The matching figures for `CC[C@@H]1[C@@H](C)O[C@@](O)([C@@H](C)[C@H](O)[C@H](C)[C@H]2OC(=O)/C=C/C=C/[C@H](C)[C@@H]([C@@H](C)[C@@H](O)[C@H](C)[C@@]3(O)C[C@@H](O[C@H]4C[C@H](O)[C@H](O)[C@H](C)O4)[C@H](CC)[C@@H](C)O3)OC(=O)/C=C/C=C/[C@@H]2C)C[C@H]1O[C@H]1C[C@H](O)[C@H](O)[C@H](C)O1`: 3.9 µM, 100 and 1.5 µM.
The matching figures for `C[C@@H]1CC[C@@]2(OC1)O[C@H]1C[C@H]3[C@@H]4CC=C5C[C@@H](O[C@@H]6O[C@H](CO)[C@@H](O[C@@H]7O[C@@H](C)[C@H](O)[C@@H](O)[C@H]7O)[C@H](O)[C@H]6O[C@@H]6O[C@@H](C)[C@H](O)[C@@H](O)[C@H]6O)CC[C@]5(C)[C@H]4CC[C@]3(C)[C@H]1[C@@H]2C`: 16 µM, 99 and 45 µM.
The matching figures for `C[n+]1cc2c3c(ccc2c2ccc4cc5c(cc4c21)OCO5)OCO3`: 2.9 µM, 96 and 6.4 µM.
As to `Cc1cc2c(F)c(Oc3ncnn4cc(OC[C@@H](C)O)c(C)c34)ccc2[nH]1`, the IC50 in the test on HEK293 [1] worked out at 2.9 µM. Besides, the maximal inhibition in the test on HEK293 [2] amounted to 104. For the same molecule, the “cytotoxicity IC50” value in the test with HEK293 [3] came out at 1.4 µM.
The matching figures for `CC(=O)[C@]1(O)Cc2c(O)c3c(c(O)c2[C@@H](O[C@H]2C[C@H](N)[C@H](O)[C@H](C)O2)C1)C(=O)c1ccccc1C3=O`: 0.17 µM, 86 and > 100 µM.
With `CC(C)n1nc(-c2cc3cc(O)ccc3[nH]2)c2c(N)ncnc21`, the IC50 with HEK293 [1] was found to be 16 µM. Further, in the test with HEK293 [2], the maximal inhibition is 78. The “cytotoxicity IC50” value in the test on HEK293 [3] was 77 µM.
For `CC(C)C[C@H](NC(=O)CNC(=O)c1cc(Cl)ccc1Cl)B(O)O` the same measures were 0.23 µM, 102 and 2.1 µM.
For `CCCCc1ccc2[nH]c(NC(=O)OC)nc2c1` the same measures were 0.69 µM, 80 and 3 µM.
The matching figures for `CC(=O)OC[C@H]1O[C@@H]([S-])[C@H](OC(C)=O)[C@@H](OC(C)=O)[C@@H]1OC(C)=O.CCP(CC)CC.[Au+]`: 3.5 µM, 107 and 3 µM.
As to `COc1cc(OC)c(/C=C/S(=O)(=O)Cc2ccc(OC)c(NCC(=O)O)c2)c(OC)c1`, the IC50 in the test with HEK293 [1] was 1.4 µM. In addition, the maximal inhibition in the test with HEK293 [2] worked out at 61. Moreover, in the test with HEK293 [3], the “cytotoxicity IC50” value was > 100 µM.
For `CN(Cc1cnc2nc(N)nc(N)c2n1)c1ccc(C(=O)N[C@@H](CCC(=O)O)C(=O)O)cc1` the same measures were 0.46 µM, 95 and 0.24 µM.
For `Cc1ncc(-c2ccnc(Nc3ccc(S(C)(=O)=O)cc3)n2)n1C(C)C` the same measures were 9.2 µM, 99 and > 100 µM.
The matching figures for `CO[C@H]1[C@H](O)[C@@H](O)[C@H](n2c3c(Cl)cccc3c3c4c(c5c6cccc(Cl)c6[nH]c5c32)C(=O)NC4=O)O[C@@H]1CO`: 2.1 µM, 90 and 60 µM.
